Experimental data reported in patent US20260068888A1, “ALGICIDAL FOAM COMPOSITIONS AND METHODS OF MAKING AND USING THEREOF” (THE ADMINISTRATORS OF THE TULANE EDUCATIONAL FUND, priority 2024, published 2026).

Test system: Karenia brevis (KB) cells
Assay: SYTOX-Green assay of cell-membrane integrity
Type: cell-based
Method: SYTOX-Green Assay. The effects of treatments on the cells were also investigated utilizing the SYTOX-green assay, a technique designed to evaluate cell-membrane integrity. The SYTOX-green dye selectively permeates through compromised cell membranes and produces green-fluorescent color upon interaction with nucleic acid. […] For the assay protocol, a 1.0 ml aliquot of the cell suspension was incubated with 10 μl of the dye solution ([…]) for 15 minutes in the dark, resulting in a final dye concentration of […]. The dye concentration and the incubation time were validated by the heat-treated K. brevis cells for 1 h at 60° C. The cell suspension was then transferred in an optically clear well plate for visualization under an inverted fluorescence microscope (Ex: 465-495 nm; Em: 515 nm, long pass).

[1] = gallic acid 5 mg/mL in the foam stock solution, Tween 80 1.25 mg/mL

O.O=C(O)c1cc(O)c(O)c(O)c1 [gallic acid, Gallic acid monohydrate]
time by which non-viable cells become lysed (loss of green fluorescence) [1]: ≤ 6 h | time to membrane compromised cells (SYTOX-green) [1]: ≤ 3 h | cell green fluorescence (lysis), SYTOX-green (gallic acid in foam, 24 hours): almost total loss of cell green fluorescence
